# Values quoted from earlier work as cited in patent publication US20090241221A1, “TANDEM REAPEAT DNA CONSTRUCTS PRODUCING PROTEINS THAT ATTACK PLANT PATHOGENIC VIRUSES, FUNGI, AND BACTERIA BY DISRUPTING TRANSCRIPTION FACTORS ESSENTIAL FOR REPLICATION THEREOF IN PLANTS” (priority 2008, published 2009).
# System: Magnaporthe grisea
# Conditions: PA treated plants; doses in the range of 0.5 mg/mL; cited from earlier work
structure (smiles),measurement,value
"O=C(O)c1ccccn1 [picolinic acid, 2-pyridine carboxylic acid]",resistance against M. grisea,enhanced
